Tests used:
Human neurokinin (NK1) = molecular target: T1, Human neurokinin (NK1) (Homo sapiens, UniProt P25103); test: Radioligand binding, human neurokinin NK1 membranes, filtration, [125I]-Substance P; settings: compound at 10 μM; for A8 radioligand binding inhibition: human neurokinin NK1 membranes
T1 construct: purchased Perkin Elmer Biosignal
Procedure, shortened: (§1)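 Percent inhibition of radioligand binding measured on recombinant human membranes: NK1 with [125I]-Substance P, KOP with [3H]-Diprenorphine. Incubation 1 h at room temperature, then harvest onto 0.3% PEI-soaked filters, cold Tris-HCl pH 7.4 washes and scintillation counting; non-specific binding from reference ligand wells.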

[1] = molecular target: T2, Human melanin-concentrating hormone (MCH1) (Homo sapiens, UniProt Q99705); test: Radioligand binding, human melanin-concentrating hormone MCH1 membranes, FlashPlate, [125I]-S36057; settings: compound at 10 μM; for A6 radioligand binding inhibition: human MCH1 membranes
T2 construct: purchased Perkin Elmer Biosignal
Procedure, shortened: (§2)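 Cloned human receptor membranes were coated onto FlashPlate wells and incubated with radioligand and compound (added from a 0.5 mM DMSO daughter plate) for 1 hour at room temperature in the dark. Scintillation counting gave percent inhibition, with DMSO defining total and reference ligand defining non-specific binding.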

Human Melanocortin (MC3) = molecular target: T3, Human Melanocortin (MC3) (Homo sapiens, UniProt P41968); test: Radioligand binding, human melanocortin MC3 membranes, FlashPlate, [125I]-NDP-αMSH; settings: compound at 10 μM; for A3 radioligand binding inhibition: human melanocortin MC3 membranes
T3 construct: purchased Perkin Elmer Biosignal
Procedure, shortened: as §2

Human δ-opioid (DOP) = molecular target: T4, Human δ-opioid (DOP) (Homo sapiens, UniProt P41143); test: Radioligand binding, human δ-opioid (DOP) membranes, FlashPlate, [3H]-Bremazocine; settings: compound at 10 μM; for A1 radioligand binding inhibition: human δ-opioid (DOP) membranes
T4 construct: purchased Perkin Elmer Biosignal
Procedure, shortened: as §2

Human melanocortin (MC5) = molecular target: T5, Human melanocortin (MC5) (Homo sapiens, UniProt P33032); test: Radioligand binding, human melanocortin MC5 membranes, FlashPlate, [125I]-NDP-αMSH; settings: compound at 10 μM; for A5 radioligand binding inhibition: human melanocortin MC5 membranes
T5 construct: purchased Perkin Elmer Biosignal
Procedure, shortened: as §2

[2] = molecular target: T6, Human neuropeptide Y (NPY-Y1) (Homo sapiens, UniProt P25929); test: Radioligand binding, human neuropeptide Y NPY-Y1 membranes, FlashPlate, [125I]-PYY; settings: compound at 10 μM
T6 construct: purchased Perkin Elmer Biosignal
T6 sequence (P25929 1-384): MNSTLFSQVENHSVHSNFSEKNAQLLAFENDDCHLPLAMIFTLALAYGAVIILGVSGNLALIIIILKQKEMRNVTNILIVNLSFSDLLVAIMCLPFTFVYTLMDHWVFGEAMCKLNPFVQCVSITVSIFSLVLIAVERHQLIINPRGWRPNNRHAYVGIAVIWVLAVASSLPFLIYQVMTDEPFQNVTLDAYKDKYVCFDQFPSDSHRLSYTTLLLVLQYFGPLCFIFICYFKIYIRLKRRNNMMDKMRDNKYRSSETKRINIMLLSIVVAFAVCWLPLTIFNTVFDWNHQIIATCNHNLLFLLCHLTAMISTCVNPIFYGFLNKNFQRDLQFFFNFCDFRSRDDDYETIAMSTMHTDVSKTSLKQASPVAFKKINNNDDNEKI
Procedure, shortened: as §2

Human opioid (ORL1) = molecular target: T7, Human opioid (ORL1) (Homo sapiens, UniProt P41146); test: Radioligand binding, human opioid ORL1 membranes, FlashPlate, [125I]-Nociceptin; settings: compound at 10 μM
T7 construct: purchased Perkin Elmer Biosignal
Procedure, shortened: as §2

Human μ-opioid (MOP) = molecular target: T8, Human μ-opioid (MOP) (Homo sapiens, UniProt P35372); test: Radioligand binding, human μ-opioid (MOP) membranes, FlashPlate, [3H]-Naloxone; settings: compound at 10 μM; for A7 radioligand binding inhibition: human μ-opioid (MOP) membranes
T8 construct: purchased Perkin Elmer Biosignal
Procedure, shortened: as §2

Mouse urotensin (mUR2) = molecular target: T9, Mouse urotensin (mUR2) (Mus musculus, UniProt Q8VIH9); test: Radioligand binding, mouse urotensin mUR2 membranes, FlashPlate, [125I]-Urotensin II; settings: compound at 10 μM; for A11 radioligand binding inhibition: mouse urotensin mUR2 membranes
T9 construct: purchased Perkin Elmer Biosignal
T9 sequence (Q8VIH9 1-385): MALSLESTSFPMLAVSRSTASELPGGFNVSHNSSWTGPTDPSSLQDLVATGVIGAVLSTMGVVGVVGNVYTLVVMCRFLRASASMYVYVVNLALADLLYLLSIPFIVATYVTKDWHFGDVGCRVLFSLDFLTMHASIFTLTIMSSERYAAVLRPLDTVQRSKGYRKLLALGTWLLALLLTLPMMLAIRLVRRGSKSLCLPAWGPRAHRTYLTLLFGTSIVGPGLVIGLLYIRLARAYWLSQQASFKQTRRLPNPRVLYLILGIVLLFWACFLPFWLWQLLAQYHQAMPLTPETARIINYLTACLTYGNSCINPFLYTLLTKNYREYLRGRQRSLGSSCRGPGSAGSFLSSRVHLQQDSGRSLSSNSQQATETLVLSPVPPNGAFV
Procedure, shortened: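 Cloned mouse urotensin (mUR2) receptor membranes from Perkin Elmer Biosignal were immobilized in FlashPlate microplates using a proprietary coating. Each well got 19.5 μl buffer, then 0.5 μl of DMSO, reference ligand, or compound. Adding 5 μl of [125I]-Urotensin II, diluted to 5× final concentration in binding buffer, started binding. Plates were sealed with TopSeal-A and incubated 1 hour at room temperature in the dark. Wells were counted for 30 seconds each on a TopCount after a 60-second delay, and percentage inhibition was calculated.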

Human Melanocortin (MC4) = molecular target: T10, Human Melanocortin (MC4) (Homo sapiens, UniProt P32245); test: Radioligand binding, human melanocortin MC4 membranes, FlashPlate, [125I]-NDP-αMSH; settings: compound at 10 μM; for A4 radioligand binding inhibition: human melanocortin MC4 membranes
T10 construct: purchased Perkin Elmer Biosignal
Procedure, shortened: as §2

Human κ-Opioid (KOP) = molecular target: T11, Human κ-Opioid (KOP) (Homo sapiens, UniProt P41145); test: Radioligand binding, human κ-opioid (KOP) membranes, filtration, [3H]-Diprenorphine; settings: compound at 10 μM; for A2 radioligand binding inhibition: human κ-opioid (KOP) membranes
T11 construct: purchased Perkin Elmer Biosignal
Procedure, shortened: as §1

T8 sequence (P35372 whole entry): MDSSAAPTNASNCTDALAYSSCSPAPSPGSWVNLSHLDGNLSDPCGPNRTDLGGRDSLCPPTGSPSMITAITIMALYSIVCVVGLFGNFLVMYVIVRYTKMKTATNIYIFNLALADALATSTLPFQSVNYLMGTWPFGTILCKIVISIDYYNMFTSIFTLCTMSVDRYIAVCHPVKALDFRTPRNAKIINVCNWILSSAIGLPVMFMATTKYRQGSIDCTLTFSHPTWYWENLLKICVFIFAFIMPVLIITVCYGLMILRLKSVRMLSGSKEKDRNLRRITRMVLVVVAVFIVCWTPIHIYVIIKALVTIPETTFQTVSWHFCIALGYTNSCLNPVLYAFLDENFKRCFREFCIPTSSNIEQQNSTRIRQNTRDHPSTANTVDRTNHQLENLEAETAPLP
T3 sequence (P41968 whole entry): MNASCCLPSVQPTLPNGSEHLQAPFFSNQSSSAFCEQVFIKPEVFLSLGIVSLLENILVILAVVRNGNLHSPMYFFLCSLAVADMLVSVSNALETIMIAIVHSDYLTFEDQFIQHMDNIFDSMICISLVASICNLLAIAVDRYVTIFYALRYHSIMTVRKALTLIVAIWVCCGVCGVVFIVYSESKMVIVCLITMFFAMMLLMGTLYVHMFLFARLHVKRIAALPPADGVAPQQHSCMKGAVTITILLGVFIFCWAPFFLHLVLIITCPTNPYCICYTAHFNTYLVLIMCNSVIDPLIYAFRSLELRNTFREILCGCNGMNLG
T10 sequence (P32245 whole entry): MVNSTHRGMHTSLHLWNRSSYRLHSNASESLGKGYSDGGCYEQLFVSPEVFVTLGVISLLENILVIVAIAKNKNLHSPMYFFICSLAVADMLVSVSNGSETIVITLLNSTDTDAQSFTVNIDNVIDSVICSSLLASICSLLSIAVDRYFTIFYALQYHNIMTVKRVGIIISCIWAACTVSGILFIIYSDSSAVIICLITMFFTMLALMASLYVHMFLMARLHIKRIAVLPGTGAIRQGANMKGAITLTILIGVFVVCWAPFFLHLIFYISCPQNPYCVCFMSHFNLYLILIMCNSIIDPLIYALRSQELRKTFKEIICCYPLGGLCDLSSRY
T1 sequence (P25103 whole entry): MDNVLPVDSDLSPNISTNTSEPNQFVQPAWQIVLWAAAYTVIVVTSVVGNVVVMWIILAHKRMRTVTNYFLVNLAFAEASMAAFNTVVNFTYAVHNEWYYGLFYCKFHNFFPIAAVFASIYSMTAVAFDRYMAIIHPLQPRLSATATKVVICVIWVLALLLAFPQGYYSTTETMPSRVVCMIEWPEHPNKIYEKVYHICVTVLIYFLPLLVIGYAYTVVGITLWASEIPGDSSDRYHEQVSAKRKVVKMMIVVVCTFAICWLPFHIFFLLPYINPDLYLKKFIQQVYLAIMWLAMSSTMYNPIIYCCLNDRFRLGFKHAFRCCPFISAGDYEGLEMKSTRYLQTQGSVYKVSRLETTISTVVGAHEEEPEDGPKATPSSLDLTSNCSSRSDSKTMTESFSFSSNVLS
T5 sequence (P33032 whole entry): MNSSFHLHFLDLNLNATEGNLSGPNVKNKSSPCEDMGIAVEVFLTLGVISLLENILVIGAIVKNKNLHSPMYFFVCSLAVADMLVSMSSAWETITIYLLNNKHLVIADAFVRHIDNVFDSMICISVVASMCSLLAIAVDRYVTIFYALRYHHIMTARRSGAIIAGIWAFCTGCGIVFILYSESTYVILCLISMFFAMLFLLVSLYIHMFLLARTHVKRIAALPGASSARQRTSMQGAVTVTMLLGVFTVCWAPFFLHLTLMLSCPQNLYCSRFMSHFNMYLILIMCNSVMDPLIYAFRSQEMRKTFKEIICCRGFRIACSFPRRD
T7 sequence (P41146 whole entry): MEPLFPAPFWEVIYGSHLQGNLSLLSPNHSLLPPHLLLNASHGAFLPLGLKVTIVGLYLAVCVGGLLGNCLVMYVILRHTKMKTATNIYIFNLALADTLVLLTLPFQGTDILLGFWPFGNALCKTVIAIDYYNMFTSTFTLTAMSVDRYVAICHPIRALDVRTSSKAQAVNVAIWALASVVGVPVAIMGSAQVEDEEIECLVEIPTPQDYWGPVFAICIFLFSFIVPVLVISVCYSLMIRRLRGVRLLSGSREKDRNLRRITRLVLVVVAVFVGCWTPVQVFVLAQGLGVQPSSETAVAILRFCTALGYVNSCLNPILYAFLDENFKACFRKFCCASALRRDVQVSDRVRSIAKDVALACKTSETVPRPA
T4 sequence (P41143 whole entry): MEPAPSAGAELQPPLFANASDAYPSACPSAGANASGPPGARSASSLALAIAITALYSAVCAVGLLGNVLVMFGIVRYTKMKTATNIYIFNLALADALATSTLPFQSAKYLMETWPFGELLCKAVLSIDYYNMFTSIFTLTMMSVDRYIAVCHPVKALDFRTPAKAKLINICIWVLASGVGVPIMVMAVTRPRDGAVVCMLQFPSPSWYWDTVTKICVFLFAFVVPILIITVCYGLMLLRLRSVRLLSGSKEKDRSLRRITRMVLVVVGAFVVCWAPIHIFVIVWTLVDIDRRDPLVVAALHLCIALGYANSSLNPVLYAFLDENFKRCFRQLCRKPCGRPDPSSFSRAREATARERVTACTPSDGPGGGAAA
T11 sequence (P41145 whole entry): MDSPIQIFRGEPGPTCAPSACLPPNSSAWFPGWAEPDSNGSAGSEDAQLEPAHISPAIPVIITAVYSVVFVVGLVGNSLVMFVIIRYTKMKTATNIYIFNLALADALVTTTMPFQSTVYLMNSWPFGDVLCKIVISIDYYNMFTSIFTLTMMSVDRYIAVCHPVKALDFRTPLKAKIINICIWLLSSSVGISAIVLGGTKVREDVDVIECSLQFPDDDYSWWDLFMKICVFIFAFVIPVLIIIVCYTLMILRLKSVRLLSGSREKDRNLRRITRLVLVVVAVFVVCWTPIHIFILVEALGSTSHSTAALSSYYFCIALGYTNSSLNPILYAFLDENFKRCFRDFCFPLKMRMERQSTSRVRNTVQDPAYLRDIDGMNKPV
T2 sequence (Q99705 whole entry): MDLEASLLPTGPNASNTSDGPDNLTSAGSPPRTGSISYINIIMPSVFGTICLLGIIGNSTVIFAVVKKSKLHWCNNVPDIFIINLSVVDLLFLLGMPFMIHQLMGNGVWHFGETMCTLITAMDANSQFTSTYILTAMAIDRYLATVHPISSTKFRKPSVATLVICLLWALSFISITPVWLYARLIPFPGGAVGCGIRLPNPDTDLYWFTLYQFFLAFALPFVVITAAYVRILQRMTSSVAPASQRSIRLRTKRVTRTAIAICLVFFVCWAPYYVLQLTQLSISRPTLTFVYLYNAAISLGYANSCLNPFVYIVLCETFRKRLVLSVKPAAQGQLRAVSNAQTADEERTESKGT

## N=C(N)NCCC(=O)N[C@H]1C(OCc2ccc(Cl)cc2)O[C@H](COCc2ccc3ccccc3c2)[C@@H](O)[C@@H]1OCc1ccc(Cl)cc1 (stereo partly shown) [compound 523]
Human neurokinin (NK1); [125I]-Substance P
  A8: inhibition of radioligand binding, human neurokinin (NK1): + (“+” indicates greater than 50% inhibition at 10 μM)
[1]; [125I]-S36057
  A6: inhibition of radioligand binding, human melanin-concentrating hormone (MCH1): + (“+” indicates greater than 50% inhibition at 10 μM)
Human Melanocortin (MC3); [125I]-NDP-αMSH
  A3: inhibition of radioligand binding, human melanocortin (MC3): + (“+” indicates greater than 50% inhibition at 10 μM)
Human δ-opioid (DOP); [3H]-Bremazocine
  A1: inhibition of radioligand binding, human δ-opioid (DOP): − (“−” indicates less than 50% inhibition at 10 μM)
Human melanocortin (MC5); [125I]-NDP-αMSH
  A5: inhibition of radioligand binding, human melanocortin (MC5): + (“+” indicates greater than 50% inhibition at 10 μM)
[2]; [125I]-PYY, 10 µM
  A9: inhibition of radioligand binding, human neuropeptide Y (NPY-Y1): − (“−” indicates less than 50% inhibition at 10 μM)
Human opioid (ORL1); [125I]-Nociceptin
  A10: inhibition of radioligand binding, human opioid (ORL1): + (“+” indicates greater than 50% inhibition at 10 μM)
Human μ-opioid (MOP); [3H]-Naloxone, 10 µM
  A7: inhibition of radioligand binding, human μ-opioid (MOP): + (“+” indicates greater than 50% inhibition at 10 μM)
Mouse urotensin (mUR2); [125I]-Urotensin II
  A11: inhibition of radioligand binding, mouse urotensin (mUR2): − (“−” indicates less than 50% inhibition at 10 μM)
Human Melanocortin (MC4); [125I]-NDP-αMSH
  A4: inhibition of radioligand binding, human melanocortin (MC4): + (“+” indicates greater than 50% inhibition at 10 μM)
Human κ-Opioid (KOP); [3H]-Diprenorphine
  A2: inhibition of radioligand binding, human κ-opioid (KOP): + (“+” indicates greater than 50% inhibition at 10 μM)

## CO[C@H]1[C@H](O)[C@@H](COCc2ccccc2)OC(OCc2ccc3ccccc3c2)[C@@H]1NC(=O)CCCNC(=N)N (stereo partly shown) [compound 77]
Human neurokinin (NK1)
  A8 radioligand binding inhibition: + (“+” indicates greater than 50% inhibition at 10 μM)
[1]
  A6 radioligand binding inhibition: − (“−” indicates less than 50% inhibition at 10 μM)
Human Melanocortin (MC3)
  A3 radioligand binding inhibition: − (“−” indicates less than 50% inhibition at 10 μM)
Human δ-opioid (DOP)
  A1 radioligand binding inhibition: − (“−” indicates less than 50% inhibition at 10 μM)
Human melanocortin (MC5)
  A5 radioligand binding inhibition: + (“+” indicates greater than 50% inhibition at 10 μM)
[2]; human NPY-Y1 membranes
  A9 radioligand binding inhibition: − (“−” indicates less than 50% inhibition at 10 μM)
Human opioid (ORL1); human ORL1 membranes
  A10 radioligand binding inhibition: − (“−” indicates less than 50% inhibition at 10 μM)
Human μ-opioid (MOP)
  A7 radioligand binding inhibition: + (“+” indicates greater than 50% inhibition at 10 μM)
Mouse urotensin (mUR2)
  A11 radioligand binding inhibition: − (“−” indicates less than 50% inhibition at 10 μM)
Human Melanocortin (MC4)
  A4 radioligand binding inhibition: − (“−” indicates less than 50% inhibition at 10 μM)
Human κ-Opioid (KOP)
  A2 radioligand binding inhibition: − (“−” indicates less than 50% inhibition at 10 μM)

## COCC1OC(OCc2ccccc2)C(NC(=O)CCNC(=N)N)C(OCc2ccc(-c3ccccc3)cc2)C1O (stereo not shown) [compound 185]
Human neurokinin (NK1); [125I]-Substance P
  A8 radioligand binding, percentage inhibition: + (“+” indicates greater than 50% inhibition at 10 μM)
[1]; [125I]-S36057
  A6 radioligand binding, percentage inhibition: + (“+” indicates greater than 50% inhibition at 10 μM)
Human Melanocortin (MC3); [125I]-NDP-αMSH
  A3 radioligand binding, percentage inhibition: − (“−” indicates less than 50% inhibition at 10 μM)
Human δ-opioid (DOP); [3H]-Bremazocine
  A1 radioligand binding, percentage inhibition: − (“−” indicates less than 50% inhibition at 10 μM)
Human melanocortin (MC5); [125I]-NDP-αMSH
  A5 radioligand binding, percentage inhibition: + (“+” indicates greater than 50% inhibition at 10 μM)
[2]; [125I]-PYY
  A9 radioligand binding, percentage inhibition: − (“−” indicates less than 50% inhibition at 10 μM)
Human opioid (ORL1); [125I]-Nociceptin
  A10 radioligand binding, percentage inhibition: − (“−” indicates less than 50% inhibition at 10 μM)
Human μ-opioid (MOP); [3H]-Naloxone
  A7 radioligand binding, percentage inhibition: − (“−” indicates less than 50% inhibition at 10 μM)
Mouse urotensin (mUR2); [125I]-Urotensin II
  A11 radioligand binding, percentage inhibition: − (“−” indicates less than 50% inhibition at 10 μM)
Human Melanocortin (MC4); [125I]-NDP-αMSH
  A4 radioligand binding, percentage inhibition: + (“+” indicates greater than 50% inhibition at 10 μM)
Human κ-Opioid (KOP); [3H]-Diprenorphine
  A2 radioligand binding, percentage inhibition: − (“−” indicates less than 50% inhibition at 10 μM)

## NCCC(=O)NC1C(OCc2ccc3ccccc3c2)OC(COCc2ccc(Cl)cc2)C(O)C1OCc1ccccc1 (single isomer, unassigned) [compound 453]
Human neurokinin (NK1); [125I]-Substance P, human NK1 membranes
  A8: inhibition of radioligand binding: + (“+” indicates greater than 50% inhibition at 10 μM)
[1]; [125I]-S36057, human MCH1 membranes, 10 µM
  A6: inhibition of radioligand binding: + (“+” indicates greater than 50% inhibition at 10 μM)
Human Melanocortin (MC3); [125I]-NDP-αMSH, human MC3 membranes, 10 µM
  A3: inhibition of radioligand binding: + (“+” indicates greater than 50% inhibition at 10 μM)
Human δ-opioid (DOP); [3H]-Bremazocine, human DOP membranes
  A1: inhibition of radioligand binding: − (“−” indicates less than 50% inhibition at 10 μM)
Human melanocortin (MC5); [125I]-NDP-αMSH, human MC5 membranes
  A5: inhibition of radioligand binding: + (“+” indicates greater than 50% inhibition at 10 μM)
[2]; [125I]-PYY, human NPY-Y1 membranes
  A9: inhibition of radioligand binding: − (“−” indicates less than 50% inhibition at 10 μM)
Human opioid (ORL1); [125I]-Nociceptin, human ORL1 membranes, 10 µM
  A10: inhibition of radioligand binding: − (“−” indicates less than 50% inhibition at 10 μM)
Human μ-opioid (MOP); [3H]-Naloxone, human MOP membranes
  A7: inhibition of radioligand binding: − (“−” indicates less than 50% inhibition at 10 μM)
Mouse urotensin (mUR2); [125I]-Urotensin II, mouse mUR2 membranes
  A11: inhibition of radioligand binding: − (“−” indicates less than 50% inhibition at 10 μM)
Human Melanocortin (MC4); [125I]-NDP-αMSH, human MC4 membranes
  A4: inhibition of radioligand binding: + (“+” indicates greater than 50% inhibition at 10 μM)
Human κ-Opioid (KOP); [3H]-Diprenorphine, human KOP membranes
  A2: inhibition of radioligand binding: − (“−” indicates less than 50% inhibition at 10 μM)

## CO[C@H]1[C@H](O)[C@@H](COCc2ccccc2)OC(OCc2ccc3ccccc3c2)[C@@H]1NC(=O)CCNC(=N)N (stereo partly shown) [compound 75]
Human neurokinin (NK1)
  A8 radioligand binding inhibition: + (“+” indicates greater than 50% inhibition at 10 μM)
[1]
  A6 radioligand binding inhibition: − (“−” indicates less than 50% inhibition at 10 μM)
Human Melanocortin (MC3)
  A3 radioligand binding inhibition: − (“−” indicates less than 50% inhibition at 10 μM)
Human δ-opioid (DOP)
  A1 radioligand binding inhibition: − (“−” indicates less than 50% inhibition at 10 μM)
Human melanocortin (MC5)
  A5 radioligand binding inhibition: − (“−” indicates less than 50% inhibition at 10 μM)
[2]; human NPY-Y1 membranes
  A9 radioligand binding inhibition: − (“−” indicates less than 50% inhibition at 10 μM)
Human opioid (ORL1); human ORL1 membranes
  A10 radioligand binding inhibition: − (“−” indicates less than 50% inhibition at 10 μM)
Human μ-opioid (MOP)
  A7 radioligand binding inhibition: + (“+” indicates greater than 50% inhibition at 10 μM)
Mouse urotensin (mUR2)
  A11 radioligand binding inhibition: − (“−” indicates less than 50% inhibition at 10 μM)
Human Melanocortin (MC4)
  A4 radioligand binding inhibition: − (“−” indicates less than 50% inhibition at 10 μM)
Human κ-Opioid (KOP)
  A2 radioligand binding inhibition: − (“−” indicates less than 50% inhibition at 10 μM)
